Reference: patent US10717720B2, “Modified compound of andrographolide” (Heilongjiang Zhenbaodao Pharmaceutical Co., Ltd., priority 2015, dated 2020)

Each molecule was assayed on LPS-induced IL-6 release level from THP-1 cells (assay: Test of IL-6 release from THP-1 cells (LPS-induced, IL-6 in supernatant detected by CBA)). Conditions: Homo sapiens, THP-1, 24 h, read-out: Inhibition rate @ 10 uM.
Assay type: cell-based
Procedure: Test of IL-6 Release from THP-1 Cells
The inhibitory effect of the compound on LPS-induced IL-6 release level from THP-1 cells was evaluated by measuring the level of IL-6 in the cell culture supernatant.
4 ul was taken from each above solution and added to lml of culture solution to make 120 uM, 40 uM, 12 uM, 4 uM. 50 ul per well was taken and added to wells with cells to give final concentrations of 30 uM, 10 uM, 3 uM, and 1 uM, respectively. Dexamethasone was added as a positive drug into an individual cell well with a final concentration of 100 nM. • c) Cell stimulation
The LPS 1 mg/ml solution was diluted to 800 ng/ml with the culture solution and added to the cell culture wells at 50 ul/well. • d) Cell incubation and detection
The cell culture plate was placed in a 37° C. incubator, and the supernatant was collected after culturing for 24 hours. The level of IL-6 in the supernatant was detected by CBA.

How did the inhibition at 10 µM turn out when `C=C1CCC2[C@]3(C)CO[C@@H](C4CCCC4)O[C@@H]3CC[C@@]2(C)[C@@H]1CCOc1ccn(CC(=O)O)c(=O)c1` (stereo partly drawn) [Compound 428, 2-(4-(2-((3R,4aR,6aS,7R,10bR)-3-cyclopentyl-6a,10b-dimethyl-8-dihydromethylenedecahydro-1H-naphtho[2,1-d][1,3]dioxin-7-yl)ethoxy)-2-carbonylpyridin-1(2H)-yl)acetic acid] was run?
The inhibition at 10 µM was 30 to 60%.

Which inhibition at 10 µM does the source give for `C=C1CCC2[C@]3(C)CO[C@@H](C4CCCC4)O[C@@H]3CC[C@@]2(C)[C@@H]1CCOc1cc(Cl)ccc1C(=O)O` (stereo partly drawn) [Compound 448, 4-chloro-2-(2-((3R,4aR,6aS,7R,10bR)-3-cyclopentyl-6a,10b-dimethyl-8-dihydromethylenedecahydro-1H-naphtho[2,1-d][1,3]dioxin-7-yl)ethoxy)benzoic acid] here?
Its inhibition at 10 µM is < 30%.

Same assay, conditions: Homo sapiens; inflammatory factor IL-6 detected by CBA; compound 10 uM; LPS-stimulated THP-1 cells, supernatant after 24 hours; read-out: Inhibition rate @ 10 uM

For `C=C1CCC2[C@]3(C)CO[C@@H](C4CCC4)O[C@@H]3CC[C@@]2(C)[C@@H]1CCOc1ccncc1` (stereo partly drawn) [Compound 412, 4-(2-((3R,4aR,6aS,7R,10bR)-3-cyclobutyl-6a,10b-dimethyl-8-dihydromethylenedecahydro-1H-naphtho[2,1-d][1,3]dioxin-7-yl)ethoxy)pyridine], which inhibition at 10 µM is on record?
The inhibition at 10 µM was > 60%.

Which inhibition at 10 µM does the source give for `C=C1CCC2[C@]3(C)CO[C@@H](C4CCCC4)O[C@@H]3CC[C@@]2(C)[C@@H]1CCOc1cnccc1C(=O)O` (stereo partly drawn) [Compound 415, 3-(2-((3R,4aR,6aS,7R,10bR)-3-cyclopentyl-6a,10b-dimethyl-8-dihydromethylenedecahydro-1H-naphtho[2,1-d][1,3]dioxin-7-yl)ethoxy)isonicotinic acid] here?
Its inhibition at 10 µM is > 60%.

How did the inhibition at 10 µM turn out when `C=C1CCC2[C@]3(C)COC4(CCCC4)O[C@@H]3CC[C@@]2(C)[C@@H]1CCOc1ccncc1` (some centres unmarked) [Compound 416] was run?
The inhibition at 10 µM was > 60%.

With `C=C1CCC2[C@]3(C)CO[C@@H](C4CCCC4)O[C@@H]3CC[C@@]2(C)[C@@H]1CCOc1c(C(=O)O)cncc1C(=O)O` (stereo partly drawn) [Compound 417, 4-(2-((3R,4aR,6aS,7R,10bR)-3-cyclopentyl-6a,10b-dimethyl-8-dihydromethylenedecahydro-1H-naphtho[2,1-d][1,3]dioxin-7-yl)ethoxy)pyridine-3,5-dicarboxylic acid] as the molecule, how does the inhibition at 10 µM read?
The inhibition at 10 µM was < 30%.

With `C=C1CCC2[C@]3(C)CO[C@@H](C4CCCC4)O[C@@H]3CC[C@@]2(C)[C@@H]1CCOc1ccnc(OC)c1` (stereo partly drawn) [Compound 420, 4-(2-((3R,4aR,6aS,7R,10bR)-3-cyclopentyl-6a,10b-dimethyl-8-dihydromethylenedecahydro-1H-naphtho[2,1-d][1,3]dioxin-7-yl)ethoxy)-2-methoxypyridine] as the molecule, how does the inhibition at 10 µM read?
Its inhibition at 10 µM is < 30%.

`C=C1CCC2[C@]3(C)CO[C@@H](C4CCCC4)O[C@@H]3CC[C@@]2(C)[C@@H]1CCOc1ccc(C(=O)O)cc1` (stereo partly drawn) [Compound 422, 4-(2-((3R,4aR,6aS,7R,10bR)-3-cyclopentyl-6a,10b-dimethyl-8-dihydromethylenedecahydro-1H-naphtho[2,1-d][1,3]dioxin-7-yl)ethoxy)benzoic acid] was tested. Which inhibition at 10 µM did it give?
The inhibition at 10 µM was 30 to 60%.

`C=C1CCC2[C@]3(C)CO[C@@H](C4CCCC4)O[C@@H]3CC[C@@]2(C)[C@@H]1CCOc1cccc(C(=O)O)c1` (stereo partly drawn) [Compound 423, 3-(2-((3R,4aR,6aS,7R,10bR)-3-cyclopentyl-6a,10b-dimethyl-8-dihydromethylenedecahydro-1H-naphtho[2,1-d][1,3]dioxin-7-yl)ethoxy)benzoic acid] was tested. Which inhibition at 10 µM did it give?
The inhibition at 10 µM was 30 to 60%.

How did the inhibition at 10 µM turn out when `C=C1CCC2[C@]3(C)CO[C@@H](C4CCCC4)O[C@@H]3CC[C@@]2(C)[C@@H]1CCOC1CCN(CC(=O)O)CC1` (stereo partly drawn) [Compound 426, 2-(4-(2-((3R,4aR,6aS,7R,10bR)-3-cyclopentyl-6a,10b-dimethyl-8-dihydromethylenedecahydro-1H-naphtho[2,1-d][1,3]dioxin-7-yl)ethoxy)piperidine-1-yl)acetic acid] was run?
Its inhibition at 10 µM is 30 to 60%.

Which inhibition at 10 µM does the source give for `C=C1CCC2[C@]3(C)CO[C@@H](C4CCCCC4)O[C@@H]3CC[C@@]2(C)[C@@H]1CCOc1ccncc1` (stereo partly drawn) [Compound 429, 4-(2-((3R,4aR,6aS,7R,10bR)-3-cyclohexyl-6a,10b-dimethyl-8-dihydromethylenedecahydro-1H-naphtho[2,1-d][1,3]dioxin-7-yl)ethoxy)pyridine] here?
Its inhibition at 10 µM is < 30%.

Which inhibition at 10 µM does the source give for `C=C1CCC2[C@]3(C)CO[C@@H](C4CCCC4)O[C@@H]3CC[C@@]2(C)[C@@H]1CCOc1cc[nH]c(=O)c1` (stereo partly drawn) [Compound 430, 4-(2-((3R,4aR,6aS,7R,10bR)-3-cyclopentyl-6a,10b-dimethyl-8-dihydromethylenedecahydro-1H-naphtho[2,1-d][1,3]dioxin-7-yl)ethoxy)pyridin-2(1H)-one] here?
The inhibition at 10 µM was 30 to 60%.

How did the inhibition at 10 µM turn out when `C=C1CCC2[C@]3(C)CO[C@@H](C4CCCC4)O[C@@H]3CC[C@@]2(C)[C@@H]1CCOc1cccnc1C(=O)O` (stereo partly drawn) [Compound 431, 3-(2-((3R,4aR,6aS,7R,10bR)-3-cyclopentyl-6a,10b-dimethyl-8-dihydromethylenedecahydro-1H-naphtho[2,1-d][1,3]dioxin-7-yl)ethoxy)-2-picolinic acid] was run?
Its inhibition at 10 µM is > 60%.

With `C=C1CCC2[C@]3(C)CO[C@@H](C4CCCC4)O[C@@H]3CC[C@@]2(C)[C@@H]1CCOc1ccc(C(=O)O)nc1` (stereo partly drawn) [Compound 432, 5-(2-((3R,4aR,6aS,7R,10bR)-3-cyclopentyl-6a,10b-dimethyl-8-dihydromethylenedecahydro-1H-naphtho[2,1-d][1,3]dioxin-7-yl)ethoxy)-2-picolinic acid] as the molecule, how does the inhibition at 10 µM read?
Its inhibition at 10 µM is > 60%.

Which inhibition at 10 µM does the source give for `C=C1CCC2[C@]3(C)CO[C@@H](C4CCCC4)O[C@@H]3CC[C@@]2(C)[C@@H]1CCN1CCN(C)CC1` (stereo partly drawn) [Compound 433, 1-(2-((3R,4aR,6aS,7R,10bR)-3-cyclopentyl-6a,10b-dimethyl-8-methylene-decahydro-1H-naphtho[2,1-d][1,3]dioxin-7-yl)ethyl)-4-methylpiperazine] here?
The inhibition at 10 µM was > 60%.

Which inhibition at 10 µM does the source give for `C=C1CCC2[C@]3(C)CO[C@@H](C4CCCC4)O[C@@H]3CC[C@@]2(C)[C@@H]1CCN1CCC[C@H]1C(=O)O` (some centres unmarked) [Compound 435] here?
Its inhibition at 10 µM is < 30%.

Which inhibition at 10 µM does the source give for `C=C1CCC2[C@]3(C)CO[C@@H](C4CCCC4)O[C@@H]3CC[C@@]2(C)[C@@H]1CCOc1ncccc1C(=O)O` (stereo partly drawn) [Compound 436, 2-(2-((3R,4aR,6aS,7R,10bR)-3-cyclopentyl-6a,10b-dimethyl-8-dihydromethylenedecahydro-1H-naphtho[2,1-d][1,3]dioxin-7-yl)ethoxy)nicotinic acid] here?
The inhibition at 10 µM was < 30%.

`C=C1CCC2[C@]3(C)CO[C@@H](C4CCCC4)O[C@@H]3CC[C@@]2(C)[C@@H]1CCOc1cc(F)ccc1C(=O)O` (stereo partly drawn) [Compound 441, 2-(2-((3R,4aR,6aS,7R,10bR)-3-cyclopentyl-6a,10b-dimethyl-8-dihydromethylenedecahydro-1H-naphtho[2,1-d][1,3]dioxin-7-yl)ethoxy)-4-fluorobenzoic acid] was tested. Which inhibition at 10 µM did it give?
Its inhibition at 10 µM is 30 to 60%.

How did the inhibition at 10 µM turn out when `C=C1CCC2[C@]3(C)CO[C@@H](C4CCCC4)O[C@@H]3CC[C@@]2(C)[C@@H]1CCOc1cncc(OC)c1` (stereo partly drawn) [Compound 442, 3-(2-((3R,4aR,6aS,7R,10bR)-3-cyclopentyl-6a,10b-dimethyl-8-dihydromethylenedecahydro-1H-naphtho[2,1-d][1,3]dioxin-7-yl)ethoxy)-5-methoxypyridine] was run?
Its inhibition at 10 µM is 30 to 60%.

With `C=C1CCC2[C@]3(C)CO[C@@H](C4CCCC4)O[C@@H]3CC[C@@]2(C)[C@@H]1CCOc1cncc(O)c1` (stereo partly drawn) [Compound 443, 5-(2-((3R,4aR,6aS,7R,10bR)-3-cyclopentyl-6a,10b-dimethyl-8-dihydromethylenedecahydro-1H-naphtho[2,1-d][1,3]dioxin-7-yl)ethoxy)-pyridin-3-ol] as the molecule, how does the inhibition at 10 µM read?
Its inhibition at 10 µM is 30 to 60%.

With `C=C1CCC2[C@]3(C)CO[C@@H](C4CCCC4)O[C@@H]3CC[C@@]2(C)[C@@H]1CCOc1cc(C#N)ccc1C(=O)O` (stereo partly drawn) [Compound 445, 4-cyano-2-(2-((3R,4aR,6aS,7R,10bR)-3-cyclopentyl-6a,10b-dimethyl-8-dihydromethylenedecahydro-1H-naphtho[2,1-d][1,3]dioxin-7-yl)ethoxy)benzoic acid] as the molecule, how does the inhibition at 10 µM read?
The inhibition at 10 µM was < 30%.

Which inhibition at 10 µM does the source give for `C=C1CCC2[C@]3(C)CO[C@@H](C4CCOCC4)O[C@@H]3CC[C@@]2(C)[C@@H]1CCOc1ccncc1` (stereo partly drawn) [Compound 446, 4-(2-((3R,4aR,6aS,7R,10bR)-6a,10b-dimethyl-8-dihydromethylene-3-(tetrahydro-2H-pyran-4-yl)decahydro-1H-naphtho[2,1-d][1,3]dioxin-7-yl)ethoxy)pyridine] here?
The inhibition at 10 µM was < 30%.

Which inhibition at 10 µM does the source give for `C=C1CCC2[C@]3(C)CO[C@@H](C4CCCC4)O[C@@H]3CC[C@@]2(C)[C@@H]1CCOc1cc(C)ccc1C(=O)O` (stereo partly drawn) [Compound 447, 2-(2-((3R,4aR,6aS,7R,10bR)-3-cyclopentyl-6a,10b-dimethyl-8-dihydromethylenedecahydro-1H-naphtho[2,1-d][1,3]dioxin-7-yl)ethoxy)-4-methylbenzoic acid] here?
Its inhibition at 10 µM is < 30%.

Which inhibition at 10 µM does the source give for `C=C1CCC2[C@]3(C)CO[C@@H](C4CCCC4)O[C@@H]3CC[C@@]2(C)[C@@H]1CCN1CCC[C@@H]1C(=O)O` (some centres unmarked) [Compound 450] here?
The inhibition at 10 µM was > 60%.

Which inhibition at 10 µM does the source give for `C=C1CCC2[C@]3(C)CO[C@@H](C4CCCC4)O[C@@H]3CC[C@@]2(C)[C@@H]1CCN1CCCC[C@@H]1C(=O)O` (stereo partly drawn) [Compound 451, (2R)-1-(2-((3R,4aR,6aS,7R,10bR)-3-cyclopentyl-6a,10b-dimethyl-8-methylene-decahydro-1H-naphtho[2,1-d][1,3]dioxin-7-yl)ethyl)piperidine-2-carboxylic acid] here?
The inhibition at 10 µM was 30 to 60%.

For `C=C1CCC2[C@]3(C)CO[C@@H](C4CCCC4)O[C@@H]3CC[C@@]2(C)[C@@H]1CCOc1cccc(F)c1C(=O)O` (stereo partly drawn) [Compound 452, 2-(2-((3R,4aR,6aS,7R,10bR)-3-cyclopentyl-6a,10b-dimethyl-8-dihydromethylenedecahydro-1H-naphtho[2,1-d][1,3]dioxin-7-yl)ethoxy)-6-fluoro-benzoic acid], which inhibition at 10 µM is on record?
Its inhibition at 10 µM is 30 to 60%.
